In experiment [1] the target is T1, HLA-E*01:03 (Homo sapiens, UniProt P13747).
T1 construct: made in house
Put plainly: pHLA Thermofluor (thermal shift) assay. Type of experiment: binding. Conditions: Table S2; SYPRO Orange thermal shift, pHLA 0.25 mg/mL in PBS, 10 to 95°C at 1°C/min, triplicate; two independent experiments. The procedure:
Thermal shift assay experiments were performed using a RT‐PCR instrument (Quantstudio 6, Applied Biosystems). SYPRO Orange protein gel stain (5000× stock solution) was diluted in PBS to yield a 75× working solution. In a 96‐well plate, 23 μL of pHLA at 0.25 mg/mL was added to 2 μL of SYPRO Orange working solution to a final volume of 25 μL, with each pHLA prepared in triplicate. Mixtures were heated from 10 to 95°C with a temperature increment of 1°C/min. Fluorescence was detected using the FAM filter set, with excitation and emission wavelength at 495 and 518 nm, respectively. Data analysis was performed using Protein Thermal Shift Software version 1.4 (Thermofisher Scientific) to determine Tm.

Another experiment addresses T2, HLA-ES147C (Homo sapiens, UniProt P13747, S168C).
T2 construct: made in house
It is filed as binding.

The target of experiment [2] is T1, HLA-E*01:03. Put plainly: pHLA-E complex stability by SPR (ILT2 binding over time). Conditions: for t1/2: Table S2, SPR BIAcore T200, biotinylated pHLA-E monomers on streptavidin CM5 chip, 1 μM soluble ILT2 at regular intervals over 5 h, 25°C. The procedure: HLA‐E heavy chain (without transmembrane domain and with or without a C‐terminal biotinylation tag, AviTagsequence) and β2m were expressed and refolded with the peptide of interest and subsequently purified, as previously described. To biotinylate complexes prior to size exclusion chromatography, complexes were AviTag treated with biotin‐protein ligase (BirA) according to the manufacturer's instructions (Avidity BirA‐500 kit).
The stability of all pHLA‐E complexes was assessed by SPR using a BIAcore T200 instrument. Purified biotinylated pHLA‐E monomers (HLA‐E*01:03 was used throughout) were immobilized onto a streptavidin‐coupled CM5 sensor chip. A total of 1 μM of soluble ILT2 was flowed over the chip at 10 μL/min for 60 s. ILT2 binding to pHLA‐E complexes was measured at regular intervals over 5 h and responses were normalized by subtracting the bulk buffer response of a control flow cell containing no pHLA. Binding t 1/2 was calculated by plotting % activity against time using the Biacore T200 evaluation software version 3.0 and GraphPad Prism version 8.3.0.

This note sets out measurements from PMC9306587 (European Journal of Immunology, 2022).

Take VMAPRTLLL [LA13-11]: the “Average Tm” value at HLA-E*01:03 [1] was determined as 47.87 °C. Besides, the “t1/2(hours) HLA-ES147C(H3C)” value at HLA-ES147C was 16.74 h. The “t1/2” value on HLA-E*01:03 [2] and at HLA-E*01:03 [2] (representative of at least two independent experiments) was 2.8 h each time. Further, on HLA-E*01:03 [2] (Table S4, SPR with ILT2 over 5 h), the “t1/2(hours) HLA-E” value stood at 2.8 h.
